Where a SMILES comes first, the peptide text is derived from it. Bridges are numbered along the chain shown (N, C = ends). [ ]: non-standard residue; d: D form. The star is where a group is joined. hPhe(3-Cl-4-CF3) = N[C@@H](CCc1ccc(C(F)(F)F)c(Cl)c1)C(=O)O; NPrPhe(4-CF3) = CCCN[C@@H](Cc1ccc(C(F)(F)F)cc1)C(=O)O; NMeGly(cPent) = CN[C@H](C(=O)O)C1CCCC1; NEtLeu = CCN[C@@H](CC(C)C)C(=O)O; NMeD = CN[C@@H](CC(=O)O)C(=O)O; Morpholide = C1CN(*)CCO1; Ac4c = NC1(C(=O)O)CCC1; Sar = CNCC(=O)O
What was measured:
[1] = molecular target: GDP-bound KRAS wild-type protein (Homo sapiens, UniProt P01116); assay: Binding to KRAS by surface plasmon resonance (SPR), Single Cycle Kinetics; conditions: SPR, Single Cycle Kinetics, GDP-bound KRAS wild-type protein; read-out: KRAS KD
[2] = molecular target: GDP-bound NRAS wild-type protein (Homo sapiens, UniProt P01111); assay: Binding to NRAS by surface plasmon resonance (SPR), Single Cycle Kinetics; conditions: ratio of KD for GDP-bound NRAS wild-type protein to KD for KRAS, SPR
[3] = molecular target: GDP-bound HRAS wild-type protein (Homo sapiens, UniProt P01112); assay: Binding to HRAS by surface plasmon resonance (SPR), Single Cycle Kinetics; conditions: ratio of KD for GDP-bound HRAS wild-type protein to KD for KRAS, SPR
[4] = test system: human lung cancer strain NCI-H441; assay: cells; conditions: NCI-H441, 96 h, read-out: NCI-H441 IC50 (nM), NCI-H441 cell proliferation, 4 days, CellTiter-Glo;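 note: cell proliferation inhibition after four days measured by CellTiter-Glo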

GDP-bound HRAS wild-type protein, sequence (P01112 whole entry): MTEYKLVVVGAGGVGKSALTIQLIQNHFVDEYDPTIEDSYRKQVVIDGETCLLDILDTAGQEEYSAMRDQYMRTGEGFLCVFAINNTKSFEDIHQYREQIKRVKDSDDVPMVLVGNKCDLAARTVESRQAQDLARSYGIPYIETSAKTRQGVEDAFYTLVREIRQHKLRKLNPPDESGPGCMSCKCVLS
GDP-bound NRAS wild-type protein, sequence (P01111 whole entry): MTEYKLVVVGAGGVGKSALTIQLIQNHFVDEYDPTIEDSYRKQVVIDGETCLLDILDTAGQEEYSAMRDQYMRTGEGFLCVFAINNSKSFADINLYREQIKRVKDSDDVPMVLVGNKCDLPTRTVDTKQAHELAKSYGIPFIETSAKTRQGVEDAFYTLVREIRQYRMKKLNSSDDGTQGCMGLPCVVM
GDP-bound KRAS wild-type protein, sequence (P01116 whole entry): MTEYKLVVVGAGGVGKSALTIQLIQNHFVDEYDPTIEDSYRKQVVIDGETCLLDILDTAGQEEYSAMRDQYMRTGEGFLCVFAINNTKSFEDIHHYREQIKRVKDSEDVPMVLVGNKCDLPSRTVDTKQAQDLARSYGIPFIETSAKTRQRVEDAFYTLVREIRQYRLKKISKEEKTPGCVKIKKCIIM

SMILES | Kd [1] | NRAS/KRAS (KD ratio) [2] | HRAS/KRAS (KD ratio) [3] | IC50 [4]
CCO[C@@H]1C[C@H]2C(=O)NC3(CC(C)(C)C3)C(=O)N(C)[C@@H](C3CCCC3)C(=O)N(C)[C@H](C(=O)N3CCCC3)CC(=O)N(C)[C@@H](CC)C(=O)N[C@@H]([C@@H](C)CC)C(=O)N(C)CC(=O)N(C)[C@H]3C/C=C\CCN(C3=O)[C@@H](Cc3ccc(C(F)(F)F)cc3)C(=O)N(C)CC(=O)N[C@@H](CCc3cc(F)c(C(F)(F)F)c(F)c3)C(=O)N2C1 [PP1944] | 0.19 nM | A (a compound having 10 or more and less than 20 is denoted as A) | A (a compound having 10 or more and less than 20 is denoted as A) | 14.8 nM
CCC[C@H]1C(=O)N[C@@H]([C@@H](C)CC)C(=O)N(C)CC(=O)N(C)[C@H]2C/C=C\CCN(C2=O)[C@@H](Cc2ccc(C(F)(F)F)cc2)C(=O)N(C)CC(=O)N[C@@H](CCc2cc(F)c(C(F)(F)F)c(F)c2)C(=O)N2C[C@H](OCC)C[C@H]2C(=O)NC2(CCC2)C(=O)N(C)[C@@H](C2CCCC2)C(=O)N(CCC)[C@H](C(=O)N(C)C)CC(=O)N1C [PP1769] | 0.78 nM | A (a compound having 10 or more and less than 20 is denoted as A) | A (a compound having 10 or more and less than 20 is denoted as A) | 12.9 nM
CCO[C@@H]1C[C@H]2C(=O)NC3(CC(C)(C)C3)C(=O)N(C)[C@@H](C3CCCC3)C(=O)N(C)[C@H](C(=O)N(C)C)CC(=O)N(C)[C@@H](CC3CCC3)C(=O)N[C@@H]([C@@H](C)CC)C(=O)N(C)CC(=O)N(C)[C@H]3C/C=C\CCN(C3=O)[C@@H](Cc3ccc(C(F)(F)F)cc3)C(=O)N(C)CC(=O)N[C@@H](CCc3ccc(C(F)(F)F)c(Cl)c3)C(=O)N2C1 [PP1752] | 0.085 nM | A (a compound having 10 or more and less than 20 is denoted as A) | A (a compound having 10 or more and less than 20 is denoted as A) | 5.8 nM
CC[C@H](C)[C@@H]1NC(=O)[C@H](CC)N(C)C(=O)C[C@@H](C(=O)N(C)C)N(C)C(=O)[C@H](C2CCCC2)N(C)C(=O)C2(CCC2)N(C)C(=O)[C@@H]2CCCN2C(=O)[C@H](CCc2cc(F)c(C(F)(F)F)c(F)c2)NC(=O)CN(C)C(=O)[C@H](Cc2ccc(C)cc2)N2CC/C=C\C[C@@H](C2=O)N(C)C(=O)[C@@H]2CCCN2C1=O [PP1786] | 0.14 nM | A (a compound having 10 or more and less than 20 is denoted as A) | B (a compound having 3 or more and less than 10 is denoted as B) | 11.4 nM
CC[C@H](C)[C@@H]1NC(=O)[C@H](CC)N(C)C(=O)C[C@@H](C(=O)N(C)CC)N(C)C(=O)[C@H](C2CCCC2)N(C)C(=O)C2(CCC2)NC(=O)[C@@H]2C[C@@H](C)CN2C(=O)[C@H](CCc2ccc(C(F)(F)F)c(OC)c2)NC(=O)CN(C)C(=O)[C@H](Cc2ccc(C)cc2)N2CC/C=C\C[C@@H](C2=O)N(C)C(=O)CN(C)C1=O [PP1855] | 0.19 nM | AA (a compound having 20 or more is denoted as AA) | A (a compound having 10 or more and less than 20 is denoted as A) | 17.7 nM
CCO[C@@H]1C[C@H]2C(=O)NC3(CC(F)(F)C3)C(=O)N(C)[C@@H](C3CCCC3)C(=O)N3CCC[C@@H]3CC(=O)N(C)[C@@H](CC)C(=O)N[C@@H]([C@@H](C)CC)C(=O)N(C)CC(=O)N(C)[C@H]3C/C=C\CCN(C3=O)[C@@H](Cc3ccc(C(F)(F)F)cc3)C(=O)N(C)CC(=O)N[C@@H](CCc3cc(F)c(C(F)(F)F)c(F)c3)C(=O)N2C1 [PP1609] | 0.2 nM | A (a compound having 10 or more and less than 20 is denoted as A) | A (a compound having 10 or more and less than 20 is denoted as A) | 37 nM
CCCN(C)C(=O)[C@@H]1CC(=O)N(C)[C@@H](CCOC)C(=O)N[C@@H]([C@@H](C)CC)C(=O)N(C)CC(=O)N(C)[C@H]2C/C=C\CCN(C2=O)[C@@H](Cc2ccc(C(F)(F)F)cc2)C(=O)N(C)CC(=O)N[C@@H](CCc2ccc(C(F)(F)F)c(OC)c2)C(=O)N2C[C@@H](C)C[C@H]2C(=O)NC2(CC(C)(C)C2)C(=O)N(C)[C@@H](C2CCCC2)C(=O)N1C [PP2001] | 0.11 nM | A (a compound having 10 or more and less than 20 is denoted as A) | A (a compound having 10 or more and less than 20 is denoted as A) | 18.1 nM
CCCN(C)C(=O)[C@@H]1CC(=O)N(C)[C@@H](C(C)C)C(=O)N[C@@H]([C@@H](C)CC)C(=O)N(C)CC(=O)N(C)[C@H]2C/C=C\CCN(C2=O)[C@@H](Cc2ccc(C(F)(F)F)cc2)C(=O)N(C)CC(=O)N[C@@H](CCc2ccc(C(F)(F)F)c(OC)c2)C(=O)N2C[C@H](OCC)C[C@H]2C(=O)NC2(CCC2)C(=O)N(C)[C@@H](C2CCCC2)C(=O)N1C [PP2020] | 0.19 nM | A (a compound having 10 or more and less than 20 is denoted as A) | A (a compound having 10 or more and less than 20 is denoted as A) | 8.3 nM
CCO[C@@H]1C[C@H]2C(=O)N(C)C3(CCC3)C(=O)N(C)[C@@H](C3CCCC3)C(=O)N(C)[C@H](C(=O)N(C)C)CC(=O)N(C)[C@@H](CC)C(=O)N[C@@H]([C@@H](C)CC)C(=O)N(C)CC(=O)N(C)[C@H]3C/C=C\CCN(C3=O)[C@@H](Cc3ccc(C)cc3)C(=O)N(C)CC(=O)N[C@@H](CCc3cc(F)c(C(F)(F)F)c(F)c3)C(=O)N2C1 [PP1781] | 0.024 nM | A (a compound having 10 or more and less than 20 is denoted as A) | B (a compound having 3 or more and less than 10 is denoted as B) | 2.1 nM
CC[C@H](C)[C@@H]1NC(=O)[C@H](CC(C)C)N(C)C(=O)C[C@@H](C(=O)N(C)C)N(C)C(=O)[C@H](C2CCCC2)N(C)C(=O)C2(CCC2)NC(=O)[C@@H]2C[C@@H](C)CN2C(=O)[C@H](CCc2cc(F)c(C(F)(F)F)c(F)c2)NC(=O)CN(C)C(=O)[C@H](Cc2ccc(C)cc2)N2CC/C=C\C[C@@H](C2=O)N(C)C(=O)CN(C)C1=O [PP1866] | 0.093 nM | A (a compound having 10 or more and less than 20 is denoted as A) | B (a compound having 3 or more and less than 10 is denoted as B) | 11.1 nM
CCCN1C(=O)CN(C)C(=O)CN(C)C(=O)[C@H]([C@@H](C)CC)NC(=O)[C@H](CC(C)C)N(CC)C(=O)C[C@@H](C(=O)N2CCOCC2)N(C)C(=O)[C@H](C2CCCC2)N(C)C(=O)C2(CCC2)NC(=O)[C@@H]2CCCN2C(=O)[C@H](CCc2ccc(C(F)(F)F)c(Cl)c2)NC(=O)CN(C)C(=O)[C@@H]1Cc1ccc(C(F)(F)F)cc1 [PP1946] ([NEtLeu]I[Sar][Sar][NPrPhe(4-CF3)][Sar][hPhe(3-Cl-4-CF3)]P[Ac4c][NMeGly(cPent)][NMeD]-Morpholide; lactam N-11) | 0.16 nM | B (a compound having 3 or more and less than 10 is denoted as B) | C (A compound having a KD ratio of 0.1 or more and less than 3 is denoted as C) | 15.2 nM

Source: patent publication US20240158446A1, “CYCLIC COMPOUND HAVING SELECTIVE INHIBITORY ACTION ON KRAS OVER HRAS AND NRAS” (CHUGAI SEIYAKU KABUSHIKI KAISHA, priority 2021, published 2024)
